{"source": "patent US20240082151A1", "about": "“ORALLY IMPLANTABLE DRUG DELIVERY DEVICE” (priority 2019, published 2024)", "origin": "cited, not measured here", "key": {"[1]": {"details": "target TFV-DP in PBMCs 50 fmol per million cells; PB-PK simulation (ref 33)"}, "[2]": {"details": "another study (ref 34)"}, "HIV": {"system": "HIV", "details": "target for effective HIV prevention"}}}
{"smiles": "CC(C)OC(=O)[C@H](C)N[P@](=O)(CO[C@H](C)Cn1cnc2c(N)ncnc21)Oc1ccccc1", "note": "[TAF, Tenofovir alafenamide]", "values": [{"measurement": "linear subcutaneous TAF release rate estimated to lead to protective TFV-DP PBMC concentrations", "setting": "[1]", "value": 0.5, "unit": "mg/day"}, {"measurement": "TAF release rate estimated to be protective", "setting": "[2]", "value": "ca. 0.3 mg d^−1"}]}
{"smiles": "C[C@H]1CO[C@@H]2Cn3cc(C(=O)NCc4ccc(F)cc4F)c(=O)c(O)c3C(=O)N12", "note": "[CAB, Cabotegravir]", "values": [{"measurement": "steady state plasma CAB concentration, four times the protein adjusted IC90 (PA-IC90)", "setting": "HIV", "value": 0.66, "unit": "µg/mL"}]}
